pIC50: −log10 of the molar value.
Key:
Assay type in all cases: functional, cell-based
HT-29 = assay: Antiproliferative activity against human HT-29 cells assessed as reduction in cell viability after 48 hrs by SRB assay; settings: HT-29, 48 h
KM12 = assay: Antiproliferative activity against human KM12 cells assessed as reduction in cell viability after 48 hrs by SRB assay; settings: KM12, 48 h
HCT-15 = assay: Antiproliferative activity against human HCT15 cells assessed as reduction in cell viability after 48 hrs by SRB assay; settings: HCT-15, 48 h
HCT-116 = assay: Antiproliferative activity against human HCT116 cells assessed as reduction in cell viability after 48 hrs by SRB assay; settings: HCT-116, 48 h
HCC 2998 = assay: Antiproliferative activity against human HCC2998 cells assessed as reduction in cell viability after 48 hrs by SRB assay; settings: HCC 2998, 48 h
COLO 205 = assay: Antiproliferative activity against human COLO205 cells assessed as reduction in cell viability after 48 hrs by SRB assay; settings: COLO 205, 48 h
NCI-H522 = assay: Antiproliferative activity against human NCI-H522 cells assessed as reduction in cell viability after 48 hrs by SRB assay; settings: NCI-H522, 48 h, pooled result: one value given for 8 cell lines, strains, targets or settings
RPMI-8226 = assay: Antiproliferative activity against human RPMI8226 cells assessed as reduction in cell viability after 48 hrs by SRB assay; settings: RPMI-8226, 48 h
MOLT-4 = assay: Antiproliferative activity against human MOLT4 cells assessed as reduction in cell viability after 48 hrs by SRB assay; settings: MOLT-4, 48 h
K562 = assay: Antiproliferative activity against human K562 cells assessed as reduction in cell viability after 48 hrs by SRB assay; settings: K562, 48 h
HL-60(TB) = assay: Antiproliferative activity against human HL-60(TB) cells assessed as reduction in cell viability after 48 hrs by SRB assay; settings: HL-60, 48 h
CCRF-CEM = assay: Antiproliferative activity against human CCRF-CEM cells assessed as reduction in cell viability after 48 hrs by SRB assay
SK-OV-3 = assay: Antiproliferative activity against human SKOV3 cells assessed as reduction in cell viability after 48 hrs by SRB assay; settings: SK-OV-3, 48 h
OVCAR-8 = assay: Antiproliferative activity against human OVCAR8 cells assessed as reduction in cell viability after 48 hrs by SRB assay; settings: OVCAR-8, 48 h
OVCAR-5 = assay: Antiproliferative activity against human OVCAR5 cells assessed as reduction in cell viability after 48 hrs by SRB assay; settings: OVCAR-5, 48 h
OVCAR-4 = assay: Antiproliferative activity against human OVCAR4 cells assessed as reduction in cell viability after 48 hrs by SRB assay; settings: OVCAR-4, 48 h
OVCAR-3 = assay: Antiproliferative activity against human OVCAR3 cells assessed as reduction in cell viability after 48 hrs by SRB assay; settings: OVCAR-3, 48 h
IGROV-1 = assay: Antiproliferative activity against human IGROV1 cells assessed as reduction in cell viability after 48 hrs by SRB assay; settings: IGROV-1, 48 h
UO-31 = assay: Antiproliferative activity against human UO31 cells assessed as reduction in cell viability after 48 hrs by SRB assay; settings: UO-31, 48 h
TK-10 = assay: Antiproliferative activity against human TK10 cells assessed as reduction in cell viability after 48 hrs by SRB assay; settings: TK-10, 48 h
SN12C = assay: Antiproliferative activity against human SN12C cells assessed as reduction in cell viability after 48 hrs by SRB assay
RXF 393 = assay: Antiproliferative activity against human RXF393 cells assessed as reduction in cell viability after 48 hrs by SRB assay; settings: RXF 393, 48 h
CAKI-1 = assay: Antiproliferative activity against human CAKI-1 cells assessed as reduction in cell viability after 48 hrs by SRB assay; settings: CAKI-1, 48 h
ACHN = assay: Antiproliferative activity against human ACHN cells assessed as reduction in cell viability after 48 hrs by SRB assay
A498 = assay: Antiproliferative activity against human A498 cells assessed as reduction in cell viability after 48 hrs by SRB assay; settings: A498, 48 h
786-0 = assay: Antiproliferative activity against human 786-0 cells assessed as reduction in cell viability after 48 hrs by SRB assay; settings: 786-0, 48 h
DU-145 = assay: Antiproliferative activity against human DU145 cells assessed as reduction in cell viability after 48 hrs by SRB assay; settings: DU-145, 48 h
PC-3 = assay: Antiproliferative activity against human PC3 cells assessed as reduction in cell viability after 48 hrs by SRB assay; settings: PC-3, 48 h
T47D = assay: Antiproliferative activity against human T47D cells assessed as reduction in cell viability after 48 hrs by SRB assay
MDA-MB-435 = assay: Antiproliferative activity against human MDA-MB-435 cells assessed as reduction in cell viability after 48 hrs by SRB assay; settings: MDA-MB-435, 48 h
Hs-578T = assay: Antiproliferative activity against human Hs 578T cells assessed as reduction in cell viability after 48 hrs by SRB assay
MDA-MB-231 = assay: Antiproliferative activity against human MDA-MB-231 cells assessed as reduction in cell viability after 48 hrs by SRB assay; settings: MDA-MB-231, 48 h
NCI/ADR-RES = assay: Antiproliferative activity against human NCI/ADR-RES cells assessed as reduction in cell viability after 48 hrs by SRB assay
MCF7 = assay: Antiproliferative activity against human MCF7 cells assessed as reduction in cell viability after 48 hrs by SRB assay; settings: MCF7, 48 h
U-251 = assay: Antiproliferative activity against human U251 cells assessed as reduction in cell viability after 48 hrs by SRB assay; settings: U-251, 48 h
SNB-75 = assay: Antiproliferative activity against human SNB75 cells assessed as reduction in cell viability after 48 hrs by SRB assay; settings: SNB-75, 48 h
SNB-19 = assay: Antiproliferative activity against human SNB19 cells assessed as reduction in cell viability after 48 hrs by SRB assay; settings: SNB-19, 48 h
SF-539 = assay: Antiproliferative activity against human SF539 cells assessed as reduction in cell viability after 48 hrs by SRB assay; settings: SF-539, 48 h
SF-295 = assay: Antiproliferative activity against human SF295 cells assessed as reduction in cell viability after 48 hrs by SRB assay; settings: SF-295, 48 h
SF-268 = assay: Antiproliferative activity against human SF268 cells assessed as reduction in cell viability after 48 hrs by SRB assay; settings: SF-268, 48 h
UACC-62 = assay: Antiproliferative activity against human UACC62 cells assessed as reduction in cell viability after 48 hrs by SRB assay; settings: UACC-62, 48 h, pooled result: one value given for 8 cell lines, strains, targets or settings
SW-620 = assay: Antiproliferative activity against human SW620 cells assessed as reduction in cell viability after 48 hrs by SRB assay; settings: SW-620, 48 h
HOP-92 = assay: Antiproliferative activity against human HOP92 cells assessed as reduction in cell viability after 48 hrs by SRB assay; settings: HOP-92, 48 h
BT-549 = assay: Antiproliferative activity against human BT549 cells assessed as reduction in cell viability after 48 hrs by SRB assay; settings: BT-549, 48 h
MDA-MB-468 = assay: Antiproliferative activity against human MDA-MB-468 cells assessed as reduction in cell viability after 48 hrs by SRB assay; settings: MDA-MB-468, 48 h
SR = assay: Antiproliferative activity against human SR cells assessed as reduction in cell viability after 48 hrs by SRB assay

`C/C=C(\C)C(=O)O[C@H]1C=CC(=O)O[C@H]1CNC(=O)[C@H](C)O` gave a pIC50 (HT-29) of 4.60, a pIC50 (KM12) of 4.60 and a pIC50 (HCT-15) of 4.60. For the same compound, the pIC50 (HCT-116) was 4.60, the pIC50 (HCC 2998) was 4.60 and the pIC50 (COLO 205) was 4.60. The pIC50 (NCI-H522) was 4.57, the pIC50 (RPMI-8226) was 4.31 to 5.70 and the pIC50 (MOLT-4) was 4.31 to 5.70. It also gave a pIC50 (K562) of 4.31 to 5.70, a pIC50 (HL-60(TB)) of 4.31 to 5.70 and a pIC50 (CCRF-CEM) of 4.31 to 5.70. For the same compound, the pIC50 (SK-OV-3) was 4.31 to 5.70, the pIC50 (OVCAR-8) was 4.31 to 5.70 and the pIC50 (OVCAR-5) was 4.31 to 5.70. It also gave a pIC50 (OVCAR-4) of 4.31 to 5.70, a pIC50 (OVCAR-3) of 4.31 to 5.70 and a pIC50 (IGROV-1) of 4.31 to 5.70. The pIC50 (UO-31) was 4.52, the pIC50 (TK-10) was 4.52 and the pIC50 (SN12C) was 4.52. It also gave a pIC50 (RXF 393) of 4.52, a pIC50 (CAKI-1) of 4.52 and a pIC50 (ACHN) of 4.52. For the same compound, the pIC50 (A498) was 4.52, the pIC50 (786-0) was 4.52 and the pIC50 (DU-145) was 4.60. The pIC50 (PC-3) was 4.60, the pIC50 (T47D) was 4.31 to 5.70 and the pIC50 (MDA-MB-435) was 4.31 to 5.70. It also gave a pIC50 (Hs-578T) of 4.31 to 5.70, a pIC50 (MDA-MB-231) of 4.31 to 5.70 and a pIC50 (NCI/ADR-RES) of 4.31 to 5.70. It also gave a pIC50 (MCF7) of 4.31 to 5.70, a pIC50 (U-251) of 4.31 to 5.70 and a pIC50 (SNB-75) of 4.31 to 5.70. For the same compound, the pIC50 (SNB-19) was 4.31 to 5.70, the pIC50 (SF-539) was 4.31 to 5.70 and the pIC50 (SF-295) was 4.31 to 5.70. The pIC50 (SF-268) was 4.31 to 5.70, the pIC50 (UACC-62) was 4.55 and the pIC50 (SW-620) was 4.60. The pIC50 (HOP-92) was 4.31 to 5.70, the pIC50 (BT-549) was 4.31 to 5.70 and the pIC50 (MDA-MB-468) was 4.31 to 5.70. It also gave a pIC50 (SR) of 4.31 to 5.70.
For `C/C=C(\C)C(=O)O[C@H]1C=CC(=O)O[C@H]1CCC(=O)[C@H](C)O`, the pIC50 (HT-29) was 4.74, the pIC50 (KM12) was 4.74 and the pIC50 (HCT-15) was 4.74. For the same compound, the pIC50 (HCT-116) was 4.74, the pIC50 (HCC 2998) was 4.74 and the pIC50 (COLO 205) was 4.74. For the same compound, the pIC50 (NCI-H522) was 4.59, the pIC50 (RPMI-8226) was 4.31 to 5.70 and the pIC50 (MOLT-4) was 4.31 to 5.70. It also gave a pIC50 (K562) of 4.31 to 5.70, a pIC50 (HL-60(TB)) of 4.31 to 5.70 and a pIC50 (CCRF-CEM) of 4.31 to 5.70. For the same compound, the pIC50 (SK-OV-3) was 4.31 to 5.70, the pIC50 (OVCAR-8) was 4.31 to 5.70 and the pIC50 (OVCAR-5) was 4.31 to 5.70. The pIC50 (OVCAR-4) was 4.31 to 5.70, the pIC50 (OVCAR-3) was 4.31 to 5.70 and the pIC50 (IGROV-1) was 4.31 to 5.70. It also gave a pIC50 (UO-31) of 4.31 to 5.70, a pIC50 (TK-10) of 4.31 to 5.70 and a pIC50 (SN12C) of 4.31 to 5.70. For the same compound, the pIC50 (RXF 393) was 4.31 to 5.70, the pIC50 (CAKI-1) was 4.31 to 5.70 and the pIC50 (ACHN) was 4.31 to 5.70. It also gave a pIC50 (A498) of 4.31 to 5.70, a pIC50 (786-0) of 4.31 to 5.70 and a pIC50 (DU-145) of 4.64. It also gave a pIC50 (PC-3) of 4.64, a pIC50 (T47D) of 4.70 and a pIC50 (MDA-MB-435) of 4.70. It also gave a pIC50 (Hs-578T) of 4.70, a pIC50 (MDA-MB-231) of 4.70 and a pIC50 (NCI/ADR-RES) of 4.70. The pIC50 (MCF7) was 4.70, the pIC50 (U-251) was 4.31 to 5.70 and the pIC50 (SNB-75) was 4.31 to 5.70. The pIC50 (SNB-19) was 4.31 to 5.70, the pIC50 (SF-539) was 4.31 to 5.70 and the pIC50 (SF-295) was 4.31 to 5.70. The pIC50 (SF-268) was 4.31 to 5.70, the pIC50 (UACC-62) was 4.62 and the pIC50 (SW-620) was 4.74. It also gave a pIC50 (HOP-92) of 4.31 to 5.70, a pIC50 (BT-549) of 4.31 to 5.70 and a pIC50 (MDA-MB-468) of 4.31 to 5.70. It also gave a pIC50 (SR) of 4.31 to 5.70.

Source: ChEMBL document CHEMBL4373641, “Synthesis and direct comparison of the anticancer activities of phomopsolides D and E and two 7-oxa-/7-aza-analogues” (Medchemcomm, 2019)
